Test results published in US9290459B1, “Substituted bicyclic dihydropyrimidinones and their use as inhibitors of neutrophil elastase activity” (Boehringer Ingelheim International GmbH, priority 2013, dated 2016).

Target: Human neutrophil elastase (Homo sapiens (Human), UniProt P08246)
Assay: Human Neutrophil Elastase Assay
Format: biochemical
Conditions: human neutrophil elastase, substrate MeOSuc-Ala-Ala-Pro-Val-AMC 250 μM, pH 7.5; read-out: IC50

Sequence of Human neutrophil elastase (P08246 30-247): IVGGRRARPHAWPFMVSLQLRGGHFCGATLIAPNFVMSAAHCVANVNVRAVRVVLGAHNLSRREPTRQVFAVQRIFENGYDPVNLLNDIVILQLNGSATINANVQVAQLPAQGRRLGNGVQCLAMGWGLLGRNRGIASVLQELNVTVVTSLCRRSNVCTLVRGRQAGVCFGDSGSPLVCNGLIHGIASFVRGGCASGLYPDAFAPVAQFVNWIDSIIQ

Compound	IC50
CS(=O)(=O)N1C(=O)N(c2cccc(C(F)(F)F)c2)C2=C(C(=O)CC2)[C@@H]1c1ccc(C#N)cc1 [Example 9B, (S)-4-(3-(Methylsulfonyl)-2,5-dioxo-1-(3-(trifluoromethyl)phenyl)-2,3,4,5,6,7-hexahydro-1H-cyclopenta[d]pyrimidin-4-yl)benzonitrile]	3180 nM
CS(=O)(=O)c1cc(C#N)ccc1C1NC(=O)N(c2cccc(C(F)(F)F)c2)C2=C1C(=O)CC2 (centres unmarked) [Example 10, 4-(2,5-Dioxo-1-(3-(trifluoromethyl)phenyl)-2,3,4,5,6,7-hexahydro-1H-cyclopenta[d]pyrimidin-4-yl)-3-(methylsulfonyl)benzonitrile]	5.8 nM
CS(=O)(=O)c1cc(C#N)ccc1[C@@H]1NC(=O)N(c2cccc(C(F)(F)F)c2)C2=C1C(=O)CC2 [Example 10B, (R)-4-(2,5-Dioxo-1-(3-(trifluoromethyl)phenyl)-2,3,4,5,6,7-hexahydro-1H-cyclopenta[d]pyrimidin-4-yl)-3-(methylsulfonyl)benzonitrile]	98.4 nM
N#Cc1ccc(C2NC(=O)N(c3cccc(C(F)F)c3)C3=C2C(=O)CC3)cc1 (centres unmarked) [Example 11, 4-(1-(3-(Difluoromethyl)phenyl)-2,5-dioxo-2,3,4,5,6,7-hexahydro-1H-cyclopenta[d]-pyrimidin-4-yl)benzonitrile]	37.4 nM
N#Cc1ccc(C2NC(=O)N(c3cccc(C(F)(F)F)c3)C3=C2C(=O)CC3)cn1 (centres unmarked) [Example 12, 5-(2,5-Dioxo-1-(3-(trifluoromethyl)phenyl)-2,3,4,5,6,7-hexahydro-1H-cyclopenta[d]-pyrimidin-4-yl)picolinonitrile]	201 nM
N#Cc1ccc(C2NC(=O)N(c3cccc(C(F)(F)F)c3)C3=C2C(=O)CC3)c(Br)c1 (centres unmarked) [Example 13, 3-Bromo-4-(2,5-dioxo-1-(3-(trifluoromethyl)phenyl)-2,3,4,5,6,7-hexahydro-1H-cyclopenta[d]pyrimidin-4-yl)benzonitrile]	17.9 nM
CCS(=O)(=O)c1cc(C#N)ccc1[C@@H]1NC(=O)N(c2cccc(C(F)(F)F)c2)C2=C1C(=O)CC2 [Example 14B, (R)-4-(2,5-Dioxo-1-(3-(trifluoromethyl)phenyl)-2,3,4,5,6,7-hexahydro-1H-cyclopenta[d]pyrimidin-4-yl)-3-(ethylsulfonyl)benzonitrile]	33 nM
N#Cc1ccc(C2NC(=O)N(c3cccc(C(F)(F)F)c3)C3=C2C(=O)CC3)c(Cl)c1 (centres unmarked) [Example 15, 3-Chloro-4-(2,5-dioxo-1-(3-(trifluoromethyl)phenyl)-2,3,4,5,6,7-hexahydro-1H-cyclopenta[d]pyrimidin-4-yl)benzonitrile]	30.1 nM
COc1cc(C#N)ccc1C1NC(=O)N(c2cccc(C(F)(F)F)c2)C2=C1C(=O)CC2 (centres unmarked) [Example 15.1]	42.1 nM
Cc1cc(C#N)ccc1C1NC(=O)N(c2cccc(C(F)(F)F)c2)C2=C1C(=O)CC2 (centres unmarked) [Example 15.2]	28.6 nM
N#Cc1ccc(C2NC(=O)N(c3cccc(C(F)(F)F)c3)C3=C2C(=O)CC3)nc1 (centres unmarked) [Example 15.3, 6-(2,5-dioxo-1-(3-(trifluoromethyl)phenyl)-2,3,4,5,6,7-hexahydro-1H-cyclopenta[d]pyrimidin-4-yl)nicotinonitrile]	106 nM
N#Cc1ccc([C@H]2NC(=O)N(c3cccc(C(F)(F)F)c3)C3=C2C(=O)CC3)nc1 [Example 15.3A, (S)-6-(2,5-Dioxo-1-(3-(trifluoromethyl)phenyl)-2,3,4,5,6,7-hexahydro-1H-cyclopenta[d]pyrimidin-4-yl)nicotinonitrile]	31.5 nM
N#Cc1ccc([C@@H]2NC(=O)N(c3cccc(C(F)(F)F)c3)C3=C2C(=O)CC3)nc1 [Example 15.3B, (R)-6-(2,5-Dioxo-1-(3-(trifluoromethyl)phenyl)-2,3,4,5,6,7-hexahydro-1H-cyclopenta[d]pyrimidin-4-yl)nicotinonitrile]	1720 nM
CS(=O)(=O)c1cc(C#N)ccc1[C@@H]1NC(=O)N(c2cccc(C(F)F)c2)C2=C1C(=O)CC2 [Example 15.4B, (R)-4-(1-(3-(Difluoromethyl)phenyl)-2,5-dioxo-2,3,4,5,6,7-hexahydro-1H-cyclopenta[d]pyrimidin-4-yl)-3-(methylsulfonyl)benzonitrile]	57.7 nM
N#Cc1ccc(C2NC(=O)N(c3ccnc(C(F)(F)F)c3)C3=C2C(=O)CC3)cc1 (centres unmarked) [Example 15.5, 4-(2,5-Dioxo-1-(2-(tri-fluoromethyl)pyridin-4-yl)-2,3,4,5,6,7-hexahydro-1H-cyclopenta[d]pyrimidin-4-yl)benzonitrile]	110 nM
CC1CC2=C(C1=O)C(c1ccc(C#N)cc1)NC(=O)N2c1cccc(C(F)(F)F)c1 (centres unmarked) [Example 15.7]	66 nM
CSc1cc(C#N)ccc1C1NC(=O)N(c2cccc(C(F)(F)F)c2)C2=C1C(=O)CC2 (centres unmarked) [Example 16, 4-(2,5-Dioxo-1-(3-(trifluoromethyl)phenyl)-2,3,4,5,6,7-hexahydro-1H-cyclopenta[d]-pyrimidin-4-yl)-3-(methylthio)benzonitrile]	14.9 nM
N#Cc1ccc(C2NC(=O)N(c3cccc(C(F)(F)F)c3)C3=C2C(=O)CC3)c(F)c1 (centres unmarked) [Example 18, 4-(2,5-Dioxo-1-(3-(trifluoromethyl)phenyl)-2,3,4,5,6,7-hexahydro-1H-cyclopenta[d]-pyrimidin-4-yl)-3-fluorobenzonitrile]	44.2 nM
CC(C(=O)NCCO)N1C(=O)N(c2cccc(C(F)(F)F)c2)C2=C(C(=O)CC2)C1c1ccc(C#N)cc1 (centres unmarked) [Example 20, 2-(4-(4-Cyanophenyl)-2,5-dioxo-1-(3-(trifluoromethyl)phenyl)-6,7-dihydro-1H-cyclopenta[d]pyrimidin-3(2H,4H,5H)-yl)-N-(2-hydroxyethyl)propanamide]	9.1 nM

Compound	IC50
CS(=O)(=O)c1cc(C#N)ccc1C1C2=C(CCC2=O)N(c2cccc(C(F)(F)F)c2)C(=O)N1CC1CCOCC1 (centres unmarked) [Example 24.5]	1.7 nM
CS(=O)(=O)c1cc(C#N)ccc1C1C2=C(CCC2=O)N(c2cccc(C(F)(F)F)c2)C(=O)N1CCC1CCOCC1 (centres unmarked) [Example 24.6]	< 1 nM
CN1C(=O)N(c2cccc(C(F)F)c2)C2=C(C(=O)CC2)C1c1ccc(C#N)cc1 (centres unmarked) [Example 26, 4-(1-(3-(Difluoromethyl)phenyl)-3-methyl-2,5-dioxo-2,3,4,5,6,7-hexahydro-1H-cyclopenta[d]pyrimidin-4-yl)benzonitrile]	9.4 nM
Cc1cc(C#N)ccc1C1C2=C(CCC2=O)N(c2cccc(C(F)(F)F)c2)C(=O)N1C (centres unmarked) [Example 26.2]	6.4 nM
COc1cc(C#N)ccc1C1C2=C(CCC2=O)N(c2cccc(C(F)(F)F)c2)C(=O)N1C (centres unmarked) [Example 26.3]	9.5 nM
CN1C(=O)N(c2cccc(C(F)(F)F)c2)C2=C(C(=O)CC2)C1c1ccc(C#N)cc1Cl (centres unmarked) [Example 26.4]	26.2 nM
CN1C(=O)N(c2cccc(C(F)F)c2)C2=C(C(=O)CC2)[C@@H]1c1ccc(C#N)cc1 [Example 26B, (S)-4-(1-(3-(Difluoromethyl)phenyl)-3-methyl-2,5-dioxo-2,3,4,5,6,7-hexahydro-1H-cyclopenta[d]pyrimidin-4-yl)benzonitrile]	3410 nM
CN1C(=O)N(c2cccc(C(F)F)c2)C2=C(C(=O)CC2)C1c1ccc(C#N)cc1S(C)(=O)=O (centres unmarked) [Example 27, 4-(1-(3-(Difluoromethyl)phenyl)-3-methyl-2,5-dioxo-2,3,4,5,6,7-hexahydro-1H-cyclopenta[d]pyrimidin-4-yl)-3-(methylsulfonyl)benzonitrile]	1.9 nM
CSc1cc(C#N)ccc1C1C2=C(CCC2=O)N(c2cccc(C(F)(F)F)c2)C(=O)N1C (centres unmarked) [Example 27.1, 4-(3-methyl-2,5-dioxo-1-(3-(trifluoromethyl)phenyl)-2,3,4,5,6,7-hexahydro-1H-cyclopenta[d]pyrimidin-4-yl)-3-(methylthio)benzonitrile]	4.6 nM
CN1C(=O)N(c2cccc(C(F)(F)F)c2)C2=C(C(=O)CC2)C1c1ccc(C#N)cc1Br (centres unmarked) [Example 27.2]	7.1 nM
CCS(=O)(=O)c1cc(C#N)ccc1C1C2=C(CCC2=O)N(c2cccc(C(F)(F)F)c2)C(=O)N1C (centres unmarked) [Example 27.3]	1.2 nM
CN1C(=O)N(c2ccnc(C(F)(F)F)c2)C2=C(C(=O)CC2)C1c1ccc(C#N)cc1 (centres unmarked) [Example 28, 4-(3-Methyl-2,5-dioxo-1-(2-(trifluoromethyl)pyridin-4-yl)-2,3,4,5,6,7-hexahydro-1H-cyclopenta[d]pyrimidin-4-yl)benzonitrile]	36.7 nM
COC(=O)CCCS(=O)(=O)N1C(=O)N(c2cccc(C(F)(F)F)c2)C2=C(C(=O)CC2)C1c1ccc(C#N)cc1 (centres unmarked) [Example 34, Methyl 4-(4-(4-Cyanophenyl)-2,5-dioxo-1-(3-(trifluoromethyl)phenyl)-6,7-dihydro-1H-cyclopenta[d]pyrimidin-3(2H,4H,5H)-ylsulfonyl)butanoate]	3.2 nM
CS(=O)(=O)N1C(=O)N(c2cccc(C(F)F)c2)C2=C(C(=O)CC2)C1c1ccc(C#N)cc1 (centres unmarked) [Example 36, 4-(1-(3-(Difluoromethyl)phenyl)-3-(methylsulfonyl)-2,5-dioxo-2,3,4,5,6,7-hexahydro-1H-cyclopenta[d]pyrimidin-4-yl)benzonitrile]	7.2 nM
CS(=O)(=O)c1cc(C#N)ccc1[C@@H]1C2=C(CCC2=O)N(c2cccc(C(F)(F)F)c2)C(=O)N1S(C)(=O)=O [Example 37, 3-(Methylsulfonyl)-4-(3-(methylsulfonyl)-2,5-dioxo-1-(3-(trifluoromethyl)phenyl)-2,3,4,5,6,7-hexahydro-1H-cyclopenta[d]pyrimidin-4-yl)benzonitrile]	< 1 nM
Cc1cc(C#N)ccc1C1C2=C(CCC2=O)N(c2cccc(C(F)(F)F)c2)C(=O)N1S(C)(=O)=O (centres unmarked) [Example 37.1]	3.7 nM
CS(=O)(=O)c1cc(C#N)ccc1C1C2=C(CCC2=O)N(c2cccc(C(F)(F)F)c2)C(=O)N1S(C)(=O)=O (centres unmarked) [Example 37.3]	1.9 nM
CS(=O)(=O)N1C(=O)N(c2cccc(C(F)(F)F)c2)C2=C(C(=O)CC2)C1c1ccc(C#N)cn1 (centres unmarked) [Example 38.1]	37.7 nM
COc1cc(C#N)ccc1C1C2=C(CCC2=O)N(c2cccc(C(F)(F)F)c2)C(=O)N1S(C)(=O)=O (centres unmarked) [Example 38.2]	34.1 nM
